In article PMC7972864, “Fucoxanthin Prevents 6-OHDA-Induced Neurotoxicity by Targeting Keap1” (Oxidative Medicine and Cellular Longevity, 2021):

Target: Keap1 (Homo sapiens, UniProt Q14145)
Experiment: biolayer interferometry (Octet K2), biotinylated human Keap1 on the sensor
Type: binding

Chain of Keap1 (Q14145 whole entry): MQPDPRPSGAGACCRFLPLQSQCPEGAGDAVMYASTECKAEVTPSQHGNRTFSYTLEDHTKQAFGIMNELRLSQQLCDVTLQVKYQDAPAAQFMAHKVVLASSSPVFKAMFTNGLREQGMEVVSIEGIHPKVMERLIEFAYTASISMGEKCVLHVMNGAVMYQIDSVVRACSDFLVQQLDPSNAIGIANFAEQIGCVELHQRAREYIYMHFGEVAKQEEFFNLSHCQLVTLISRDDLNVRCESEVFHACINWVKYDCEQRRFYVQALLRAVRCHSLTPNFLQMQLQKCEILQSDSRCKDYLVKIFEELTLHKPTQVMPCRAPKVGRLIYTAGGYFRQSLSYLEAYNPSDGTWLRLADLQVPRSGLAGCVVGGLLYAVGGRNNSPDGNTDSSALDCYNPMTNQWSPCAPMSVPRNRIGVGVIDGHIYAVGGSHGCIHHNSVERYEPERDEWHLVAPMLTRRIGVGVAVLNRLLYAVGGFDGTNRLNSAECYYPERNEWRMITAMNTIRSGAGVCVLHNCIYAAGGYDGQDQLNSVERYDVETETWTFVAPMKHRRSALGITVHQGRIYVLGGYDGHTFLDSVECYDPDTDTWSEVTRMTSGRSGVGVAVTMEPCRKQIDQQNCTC

`CC(=O)O[C@H]1CC(C)(C)C(=C=C/C(C)=C/C=C/C(C)=C/C=C/C=C(C)/C=C/C=C(\C)C(=O)C[C@@]23O[C@]2(C)C[C@@H](O)CC3(C)C)[C@](C)(O)C1` [FUC, fucoxanthin] showed a Kd of 5.16E − 5.
